Results published in patent US10858384B2, “Synthetic molecule constructs” (KODE BIOTECH LIMITED, priority 2004, dated 2020).

Legend:
[1] = Solubility of synthetic glycolipids in hot PBS; format: physicochemical; conditions: hot PBS
From the text: In the context of this description the phrase “water soluble” means a stable, single phase system is formed when the synthetic molecule construct is contacted with water or saline (such as PBS) in the absence of organic solvents or detergents, and the term “solution” has a corresponding meaning.
For use in the transformation of cells the first criterion that synthetic glycolipids must satisfy is that they are soluble in aqueous solvents, e.g. phosphate buffered saline.
Initial tests on the molecules were to establish solubility and thus eliminate those molecules that were unsuitable for use in the transformation of cells.

[2] = test system: RBCs; assay: Evaluation of insertion of different lipid tails by agglutination with the relevant antisera; format: cell-based; design: scale not given here
From the text: Transformation of RBCs with synthetic glycolipids with different lipid tails was first evaluated (Tables 22 and 24).

[3] = test system: RBCs; assay: Insertion efficiency: post-transformation solutions concentrated 20x, Diamed serology; format: cell-based; conditions: post-transformation solution concentrated 20×, from 0.08 mg/mL
Protocol: In addition, the post-transformation solutions were concentrated 20× and compared in parallel with the transformation solutions of known concentration. Only the post-transformation solutions derived from the 0.08 mg/mL Atri-sp-Ad-DOPE (I) and 0.6 mg/mL Btri-sp-Ad-DOPE (VI) solutions were tested.
Post-transformation solutions (20 μL) were dialysed (pore size 500 Da) against de-ionised water for 2 days. The samples were left to dry in a fumehood for 10 days. At the end of this time they were transferred into a rotavapor flask and set on the rotavapor to rotate under vacuum with no heat overnight. Samples were dried in a water bath at 40° C. and washed over into smaller vessels with chloroform-methanol 2:1 leaving significant amounts of dried cellular material. The chloroform-methanol 2:1 washings were dried down, washed over again into test-tubes with chloroform-methanol 2:1 and dried down. These samples were redissolved in 1 mL of 1× PBS and used for transformation experiments. The cellular material in the bottom of the flasks was washed out with water into another set of tubes.
The post-transformation solutions (from Atri-sp-Ad-DOPE (I) at 0.08 mg/mL and Btri-sp-Ad-DOPE (VI) at 0.6 mg/mL, 20 μL) were added to washed, packed RBCs (60 μL). […]

[4] = test system: group O red blood cells (RBCs); assay: Diamed gel-card agglutination of group O RBCs transformed at 37° C. with synthetic glycolipids; format: cell-based, human; design: scale not given here; conditions: for Agglutination, Diamed gel-cards, Albaclone anti-A / Agglutination, Diamed gel-cards, Bioclone anti-A: 0.025 mg/mL
Protocol: Washed packed group O red blood cells (RBCs) (3 parts by volume) and the synthetic glycolipid solution (1 part by volume, varying concentrations) were added to an eppendorf tube. The tube was incubated in a 37° C. waterbath for one hour, mixing every 15 minutes. […]
Tube serology and Diamed gel-card results for RBCs transformed with the different synthetic molecule constructs are provided in Table 38. Results for the stability of the RBCs transformed with the different synthetic glycolipids at different concentrations are provided in Tables 39 to 44.

CCCCCCCC/C=C\CCCCCCCC(=O)OC[C@H](COP(=O)(O)OCCNC(=O)CCCCC(=O)NCCCO[C@@H]1O[C@H](CO)[C@H](O)[C@H](O[C@H]2O[C@H](CO)[C@H](O)[C@H](O)[C@H]2NC(C)=O)[C@H]1O[C@@H]1O[C@@H](C)[C@@H](O)[C@@H](O)[C@@H]1O)OC(=O)CCCCCCC/C=C\CCCCCCCC [Atri-sp-Ad-DOPE (I)]
Yes: Water solubility [1]
0: Agglutination score ([2]; 10 μg/mL, Alba anti-A, first series) | Agglutination score ([2]; 10 μg/mL, Bio anti-A, first series) | Agglutination score ([2]; 20 μg/mL, Alba anti-A, first series) | Agglutination score ([2]; 20 μg/mL, Bio anti-A, first series) | Agglutination score ([2]; 30 μg/mL, Alba anti-A, first series) | Agglutination score ([2]; 1000 μg/mL, DBA) | Score (Diamed serology) [3] | Albaclone anti-A, Diamed ([4]; 0.01 mg/mL) | Bioclone anti-A, Diamed ([4]; 0.01 mg/mL) | Agglutination, Diamed gel-cards, Albaclone anti-A ([4]; Day 2, Alsevers) | Agglutination, Diamed gel-cards, Albaclone anti-A ([4]; Day 2, Cellstab) | Agglutination, Diamed gel-cards, Albaclone anti-A ([4]; Day 8, Alsevers) | Agglutination, Diamed gel-cards, Albaclone anti-A ([4]; Day 8, Cellstab) | Agglutination, Diamed gel-cards, Albaclone anti-A ([4]; Day 15, Alsevers) | Agglutination, Diamed gel-cards, Albaclone anti-A ([4]; Day 15, Cellstab) | Agglutination, Diamed gel-cards, Albaclone anti-A ([4]; Day 22, Alsevers) | Agglutination, Diamed gel-cards, Albaclone anti-A ([4]; Day 22, Cellstab) | Agglutination, Diamed gel-cards, Albaclone anti-A ([4]; Day 29, Alsevers) | Agglutination, Diamed gel-cards, Albaclone anti-A ([4]; Day 29, Cellstab) | Agglutination, Diamed gel-cards, Albaclone anti-A ([4]; Day 43, Cellstab) | Agglutination, Diamed gel-cards, Albaclone anti-A ([4]; Day 50, Cellstab) | Agglutination, Diamed gel-cards, Albaclone anti-A ([4]; Day 57, Cellstab) | Agglutination, Diamed gel-cards, Albaclone anti-A ([4]; Day 63, Cellstab) | Agglutination, Diamed gel-cards, Bioclone anti-A ([4]; Day 63, Cellstab) | Agglutination, Diamed gel-cards, Albaclone anti-A ([4]; Day 71, Cellstab) | Agglutination, Diamed gel-cards, Bioclone anti-A ([4]; Day 71, Cellstab) | Agglutination, Diamed gel-cards, Albaclone anti-A ([4]; Day 86, Cellstab) | Agglutination, Diamed gel-cards, Bioclone anti-A ([4]; Day 86, Cellstab)
w+: Agglutination score ([2]; 30 μg/mL, Bio anti-A, first series) | Agglutination score ([2]; 40 μg/mL, Alba anti-A, first series) | Agglutination score ([2]; 50 μg/mL, Alba anti-A, first series) | Agglutination, Diamed gel-cards, Bioclone anti-A ([4]; Day 22, Alsevers) | Agglutination, Diamed gel-cards, Bioclone anti-A ([4]; Day 29, Alsevers) | Agglutination, Diamed gel-cards, Albaclone anti-A ([4]; Day 43, Alsevers) | Agglutination, Diamed gel-cards, Albaclone anti-A ([4]; Day 50, Alsevers) | Agglutination, Diamed gel-cards, Bioclone anti-A ([4]; Day 57, Cellstab)
